Experimental data published in US10105400B2, “Composition of chicken liver hydrolysates and method for improving alcohol metabolism, as well as preventing and treating liver fibrosis” (NATIONAL TAIWAN UNIVERSITY, priority 2016, dated 2018).
Marks after values point to notes of the source that are not given here.

Tests used:
[1] = Body weight and feed efficiency, thioacetamide (TAA) liver fibrosis model; assay type: in vivo, Wistar rats; conditions: CNS group: 200 mg/kg-bw carnosine oral gavage daily, 10 weeks, TAA 100 mg/kg-bw i.p.
Protocol: (§1) Forty male Wistar rats of 5-week old were purchased from BioLASCO Taiwan Co., Ltd. (Taipei, Taiwan). Two rats were housed in one cage in an animal room at 22±2° C. with a 12/12 h light-dark cycle. After one week of acclimation, the mice were randomly divided into 5 groups:
(a) The control group (The CON group): intraperitoneal injection of 0.3 mL normal saline, and administration of 0.5 mL ddH2O by oral gavage;
(§2) (b) The thioacetamide group (The TAA group): intraperitoneal injection of 100 mg TAA/kg-body weight (bw) in 0.3 mL ddH2O and administration of 0.5 mL ddH2O by oral gavage;
(§3) (c) The composition of the chicken liver hydrolysates with low dosage (The CLH-L group): intraperitoneal injection of 100 mg TAA/kg-bw in 0.3 mL ddH2O and administration of 200 mg/kg-bw CLH in 0.5 mL ddH2O by oral gavage;
(§4) (d) The composition of the chicken liver hydrolysates with high dosage (The CLH-H group): intraperitoneal injection of 100 mg TAA/kg-bw in 0.3 mL ddH2O and administration of 600 mg/kg-bw CLH in 0.5 mL ddH2O by oral gavage; and (e) The carnosine group (The CNS group): intraperitoneal injection of 100 mg TAA/kg-bw in 0.3 mL ddH2O and administration of 200 mg/kg-bw carnosine in 0.5 mL ddH2O by oral gavage;
(§5) The experiment lasted for 10 weeks. The rats were injected with ddH2O or TAA intraperitoneally once a week and administered of ddH2O, the composition of the chicken liver hydrolysates or carnosine every day. One kilogram of the chow diet comprises 487 g carbohydrate, 239 g protein, 50 g fat, 51 g fibre and 70 g ash (Laboratory Rodent Diet 5001, PMI Nutrition International/Purina Mills LLC, Richmond, Ind., USA). All rats were fasted overnight before euthanized at the last day of experiment, the organs and the tissues were collected and weighted, and stored at −80° C. for further analysis.
(§6) The experiment was conducted by a complete randomized design. The raw data was expressed as “mean±SEM”. The data was analyzed by analysis of variance (ANOVA) and Fisher's Least Significant Different (LSD) test was used to distinguish significant differences among groups. […]

[2] = Relative sizes of organs and tissues, TAA liver fibrosis model; assay type: in vivo, Wistar rats
Protocol: as §1, §2, §3, §4, §5
(§7) The experiment was conducted by a complete randomized design. The raw data was expressed as “mean±SEM”. The data was analyzed by analysis of variance (ANOVA) and Fisher's Least Significant Different (LSD) test was used to distinguish significant differences among groups. All statistical analysis of the data was performed by SAS9.2 software (SAS Institute Inc, Cary, N.C., USA). If there is no significant difference between two groups, these groups werelabeled with one identical letter.

[3] = tested on: thioacetamide (TAA)-treated mice; experiment: Biochemical indexes of liver in sera, TAA liver fibrosis model; assay type: in vivo, Wistar rats; conditions: serum; CNS group: 200 mg/kg-bw carnosine oral gavage daily, 10 weeks, TAA 100 mg/kg-bw i.p.
Protocol: as §1, §2, §3, §4, §5, §7

[4] = tested on: thioacetamide (TAA)-treated; experiment: as above; assay type: in vivo, Wistar rats; conditions: serum; CNS group: 200 mg/kg-bw carnosine oral gavage daily, 10 weeks, TAA 100 mg/kg-bw i.p.
Protocol: as §1, §2, §3, §4, §5, §7

[5] = tested on: collagen; experiment: Collagen deposition in livers (Sirius red stain, collagen kit), TAA model; assay type: in vivo, Wistar rats
Protocol: as §1, §2
(c) The composition of the chicken liver hydrolysates with low dosage (The CLH-L group): intraperitoneal injection of 100 mg TAA/kg-bw in 0.3 mL ddH2O and administration of 200 mg/kg-bw CLH in 0.5 mL ddH2O by oral gavage; […]
as §6
Sirius red dye can bind to the helical structure of the collagen, and thus the Sirius red stain assay can be used to examine the deposition of collagen in livers. Furthermore, liver collagen levels of the mice are also determined by using commercial kits (Chondres Inc., Redmond, Wash., USA). […] The collagen content in the sample is calculated by using a standard curve plotted by bovine Type I collagen and expressed as μg/mg-protein. […]

[6] = Body weight, food intake and relative sizes of organs and tissues of mice fed alcohol liquid diet; assay type: in vivo, C57/BL/6J (B6) mice; conditions: SLM group: 150 mg/kg-bw silymarin oral gavage, 8 weeks, ethanol diet
Protocol: Forty eight male C57/BL/6J (B6) mice of 8-week old were purchased from the Laboratory Animal Center of National Taiwan University. The body weight of these B6 mice were approximately 19 g to 21 g. Two mice were housed in one cage in an animal room at 22±2° C. with a 12/12 hr light-dark cycle. After one week of acclimation, the mice were randomly divided into 6 groups:
(a) The control group (the CON group): administered with the control liquid diet and 0.2 mL ddH2O by oral gavage.
(b) The ethanol group (the EtOH group): administered with the Lieber-DeCarli regular ethanol diet and 0.2 mL ddH2O by oral gavage.
(c) The composition of the chicken liver hydrolysates with low dosage (The CLH-L group): administered with the Lieber-DeCarli regular ethanol diet and 80 mg/kg-body weight (bw) of the composition of the chicken liver hydrolysates in 0.2 mL ddH2O by oral gavage.
(d) The composition of the chicken liver hydrolysates with medium dossage (The CLH-M group): administered with the Lieber-DeCarli regular ethanol diet and 320 mg/kg-bw of the composition of the chicken liver hydrolysates CLH in 0.2 mL ddH2O by oral gavage.
(e) The composition of the chicken liver hydrolysates with high dosage (The CLH-H group): administered with the Lieber-DeCarli regular ethanol diet and 1280 mg/kg-bw of the composition of the chicken liver hydrolysates in 0.2 mL ddH2O by oral gavage.
(§8) (f) The silymarin group (The SLM group): administered with the Lieber-DeCarli regular ethanol diet and 150 mg/kg-bw of silymarin in 0.2 mL ddH2O by oral gavage.
The animal experiment lasted for 8 weeks; the body weight of each mouse was recorded at the beginning and the end of the experiment. The daily liquid feed (mL) intakes as a food intake of each mouse was calculated. Mice were sacrificed after 8 weeks and the blood, heart, kidney, epididymal fat tissue, and perirenal fat tissue were all collected, weighted and then stored at −80° C. for further analysis.
The experiment was conducted by a complete randomized design. The raw data was presented as “mean±standard error of the mean (SEM)”. The data was analyzed by one way-analysis of variance (ANOVA) and Fisher's Least Significant Different test to distinguish significant differences among groups. All statistical analysis of data was performed by SAS9.2 software (SAS Institute Inc, Cary, N.C., USA). If there is no significant difference between two groups, these groups were labeled with one identical letter.

[7] = tested on: ABTS+ free radical; experiment: Trolox equivalent antioxidant capacity (TEAC) of sera and livers, alcohol liquid diet mice; assay type: in vivo, C57/BL/6J (B6) mice; conditions: SLM group: 150 mg/kg-bw silymarin oral gavage, 8 weeks, ethanol diet
Protocol: (§9) Forty eight male C57/BL/6J (B6) mice of 8-week old were purchased from the Laboratory Animal Center of National Taiwan University. The body weight of these B6 mice were approximately 19 g to 21 g. Two mice were housed in one cage in an animal room at 22±2° C. with a 12/12 hr light-dark cycle. After one week of acclimation, the mice were randomly divided into 6 groups: […]
as §8
(§10) The animal experiment lasted for 8 weeks; the body weight of each mouse was recorded at the beginning and the end of the experiment. The daily liquid feed (mL) intakes as a food intake of each mouse was calculated. […]
(§11) The experiment was conducted by a complete randomized design. […] The data was analyzed by one way-analysis of variance (ANOVA) and Fisher's Least Significant Different test to distinguish significant differences among groups. […]
(§12) To evaluate the antioxidative ability of the composition of the chicken liver hydrolysates, the ABTS^+ free radical clearing ability is tested and represented as trolox equivalent antioxidant capacity (TEAC). The lipid peroxidation is also determined by thiobarbituric acid reactive substance (TBARS) value.

[8] = tested on: lipid peroxidation; experiment: Thiobarbituric acid reactive substance (TBARS) value of sera and livers, alcohol liquid diet mice; assay type: in vivo, C57/BL/6J (B6) mice; conditions: SLM group: 150 mg/kg-bw silymarin oral gavage, 8 weeks, ethanol diet
Protocol: as §9, §8, §10, §11, §12

[9] = CNS group: 200 mg/kg-bw carnosine oral gavage daily, 10 weeks, TAA 100 mg/kg-bw i.p.

Compound: NCCC(=O)N[C@@H](Cc1cnc[nH]1)C(=O)O [CNS, carnosine]
- Feed efficiency [1]: 8.89 ± 0.33^b %
- Final body weight [1]: 380.61 ± 10.47^b g
- Weight increase [1]: 163.99 ± 7.63^a g
- Relative size Heart [2, 9]: 0.31 ± 0.01^a g/100 g-bw
- Relative size Kidney [2, 9]: 0.74 ± 0.01^a g/100 g-bw
- Relative size Liver [2, 9]: 4.14 ± 0.09^a g/100 g-bw
- Relative size Perirenal fat [2, 9]: 1.47 ± 0.11^a g/100 g-bw
- Relative size Spleen [2, 9]: 0.31 ± 0.02^a g/100 g-bw
- relative sizes of liver, kidney and spleen ([2]; carnosine 200 mg/kg-bw vs TAA group, p>0.05): does not decrease
- AST [3]: 211.00 ± 24.57^b U/L
- Blood urea nitrogen [3]: 15.4 ± 0.89 mg/dL
- Total cholesterol [3]: 52.38 ± 3.53^a mg/dL
- Total protein [3]: 4.26 ± 0.24^b g/dL
- Triglyceride [3]: 33.25 ± 3.19^b mg/dL
- ALT [4]: 63.88 ± 5.86^b U/L
- liver collagen content ([5]; CNS group (carnosine 200 mg/kg-bw) compared to TAA group, FIG. 7(B)): significantly decreased
- collagen deposition in livers (Sirius red stain) ([5]; CNS group (carnosine 200 mg/kg-bw) vs TAA group, FIG. 7(A)): remarkably decreased

Compound: COc1cc(C2Oc3cc([C@H]4Oc5cc(O)cc(O)c5C(=O)[C@@H]4O)ccc3OC2CO)ccc1O (stereo partly drawn) [SLM, silymarin]
- Relative size Epididymal fat tissue [6]: 1.68 ± 0.15^bc g/100 g-bw
- Relative size Heart [6]: 0.45 ± 0.01^ab g/100 g-bw
- Relative size Kidney [6]: 1.19 ± 0.04^ab g/100 g-bw
- Relative size Liver [6]: 4.45 ± 0.06^a g/100 g-bw
- Relative size Perirenal fat tissue [6]: 0.37 ± 0.04^b g/100 g-bw
- Relative size Spleen [6]: 0.18 ± 0.01^b g/100 g-bw
- TEAC Liver [7]: 294.16 ± 14.82^a nmole/mg-protein
- TEAC Serum [7]: 4.48 ± 0.18^b nmole/mL
- TBARS Liver [8]: 0.64 ± 0.12^ab nmole MDA eq./mg-protein
- TBARS Serum [8]: 52.62 ± 2.26^bc nmole MDA eq./mL
